{
  "source": "paper PMC3185947",
  "about": "(British Journal of Cancer, 2011)",
  "key": {"[1]": {"tested_on": "previously treated advanced non-small cell lung cancer (NSCLC)", "experimental": "(§1) In the initial stage, we assessed the feasibility of intrapatient dose escalation from 150 mg per day to a maximal level of tolerable skin toxicity, which was defined as the TR. This objective was determined to be feasible if patients developed a TR in the absence of non-cutaneous dose-limiting toxicity (DLT). […] Skin toxicity was graded according to the following scale that was based on patient tolerability:\n(§2) In the absence of both a TR and non-cutaneous DLT, the dose was increased in each patient to 200 mg per day, and then in 25 mg per day increments every 14 days. […] Toxicities were graded according to the National Cancer Institute Common Toxicity Criteria (NCI CTC), Version 2.0, except for skin toxicity.\nTumour assessments were performed using the Response Evaluation Criteria in Solid Tumours using computerised tomographic scanning or magnetic resonance imaging pretreatment and every 6–8 weeks during treatment ([Therasse et al, 2000])."}, "[2]": {"tested_on": "patients with previously treated advanced NSCLC", "experimental": "as §1, §2\nDoses were reduced in 25 mg per day decrements for toxicity. The initial systemic intervention for symptomatic skin toxicity was minocycline 100–150 mg twice daily for at least 7 days, and the initiation of treatment with minocycline for symptomatic rash was at the discretion of the investigator."}, "[3]": {"conditions": "in vivo", "text": "(§3) PK parameters were estimated by non-compartmental methods (WinNonlin v.3.1, Pharsight Corp., Mountain View, CA, USA)."}, "[4]": {"tested_on": "patients receiving erlotinib 150 mg per day", "set-up": "method as in earlier work", "conditions": "ref Shepherd et al, 2005, Perez-Soler and Van Cutsem, 2007; cited from earlier work"}, "clinical": {"assay": "clinical", "conditions": "human, in vivo", "text": "as §3"}, "[5]": {"assay": "Plasma pharmacokinetics of erlotinib and OSI-420 (HPLC, non-compartmental);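 further: pharmacokinetic parameters derived by non-compartmental analysis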", "conditions": "erlotinib dose 425 mg m^−2, 1 patient", "text": "as §3"}},
  "note": "Like-named read-outs stand apart in the source and are kept apart here.",
  "data": [
    {"compound": "C#Cc1cccc(Nc2ncnc3cc(OCCOC)c(OCCOC)cc23)c1", "note": "[erlotinib]", "values": [
      {"measurement": "Disease control (CR+PR+SD): No. of patients with CR+PR+s.d./total no. of patients", "setting": "[1]; All patients", "value": "24/42"},
      {"measurement": "Disease control (CR+PR+SD): Response rate (95% CI)", "setting": "[1]; All patients", "value": "57.1 (41.0, 72.3)"},
      {"measurement": "Objective responses (CR+PR): No. of patients with PR+CR/total no. of patients", "setting": "[1]; All patients", "value": "5/42"},
      {"measurement": "Objective responses (CR+PR): Response rate (95% CI)", "setting": "[1]; All patients", "value": "11.9 (4.0, 25.6)"},
      {"measurement": "Disease control (CR+PR+SD): No. of patients with CR+PR+s.d./total no. of patients", "setting": "[1]; Target rash feasible", "value": "15/24"},
      {"measurement": "Disease control (CR+PR+SD): Response rate (95% CI)", "setting": "[1]; Target rash feasible", "value": "62.5 (40.6, 81.2)"},
      {"measurement": "Objective responses (CR+PR): No. of patients with PR+CR/total no. of patients", "setting": "[1]; Target rash feasible", "value": "5/24"},
      {"measurement": "Objective responses (CR+PR): Response rate (95% CI)", "setting": "[1]; Target rash feasible", "value": "20.8 (7.1, 42.2)"},
      {"measurement": "Disease control (CR+PR+SD): No. of patients with CR+PR+s.d./total no. of patients", "setting": "[1]; Target rash not feasible", "value": "9/18"},
      {"measurement": "Disease control (CR+PR+SD): Response rate (95% CI)", "setting": "[1]; Target rash not feasible", "value": "50.0 (26.0, 74.0)"},
      {"measurement": "Objective responses (CR+PR): No. of patients with PR+CR/total no. of patients", "setting": "[1]; Target rash not feasible", "value": "0/18"},
      {"measurement": "Objective responses (CR+PR): Response rate (95% CI)", "setting": "[1]; Target rash not feasible", "value": "0.0 (N/A)"},
      {"measurement": "Median progression-free survival (PFS)", "setting": "[1]; all patients, 95% CI: 1.61–4.14", "value": 2.3, "unit": "months"},
      {"measurement": "Patients with a partial response (PR)", "setting": "[1]; five of 42 patients, 95% CI: 4.0–25.6", "value": 12, "unit": "%"},
      {"measurement": "Median time to initial response", "setting": "[1]; five patients with PR, range, 5–76", "value": 6, "unit": "weeks"},
      {"measurement": "Patients with stable disease", "setting": "[1]; nineteen of 42 patients", "value": 45, "unit": "%"},
      {"measurement": "Median PFS", "setting": "[1]; patients who did not experience a TR, 95% CI: 1.54, 4.14", "value": 1.9, "unit": "months"},
      {"measurement": "Median PFS", "setting": "[1]; patients who experienced a TR, 95% CI: 1.61, 6.97", "value": 3.5, "unit": "months"},
      {"measurement": "Reduction in the risk of disease progression or death", "setting": "[1]; patients who had TR", "value": 49, "unit": "%"},
      {"measurement": "PFS", "setting": "[1]; patients with PR as best response, range, 5.2 to 66+", "value": 12, "unit": "months"},
      {"measurement": "PFS", "setting": "[1]; patients with SD as best response, range, 1.2–14.0", "value": 4.7, "unit": "months"},
      {"measurement": "PFS", "setting": "[1]; patients with progressive disease as best response, range, 1.2–1.9", "value": 1.4, "unit": "months"},
      {"measurement": "Patients with pain associated with skin toxicity", "setting": "[2]; 10 of 42 patients", "value": 24, "unit": "%"},
      {"measurement": "Patients with urticaria as dominant feature of rash", "setting": "[2]; 11 of 42 patients", "value": 26, "unit": "%"},
      {"measurement": "Patients in whom the rash resembled rosacea", "setting": "[2]; 12 of 42 patients", "value": 29, "unit": "%"},
      {"measurement": "Patients with desquamation as dominant feature of rash", "setting": "[2]; 16 of 42 patients", "value": 38, "unit": "%"},
      {"measurement": "Patients with a TR who developed it at the initial 150 mg per day dose level", "setting": "[2]; 19 of 24 patients with TR", "value": 79, "unit": "%"},
      {"measurement": "Patients who developed a target rash (TR)", "setting": "[2]; 24 of 42 patients, TR = grade 2 tolerable rash requiring minocycline", "value": 57, "unit": "%"},
      {"measurement": "Patients with pruritus associated with skin toxicity", "setting": "[2]; 28 of 42 patients", "value": 67, "unit": "%"},
      {"measurement": "Patients who developed skin toxicity", "setting": "[2]; 41 of 42 patients", "value": 98, "unit": "%"},
      {"measurement": "Patients discontinued from the study due to skin toxicity", "setting": "[2]; 42 patients", "value": "No patient"},
      {"measurement": "Initial patients (first stage) who developed a TR", "setting": "[2]; first stage of the study", "value": "10 of the 11 initial patients"},
      {"measurement": "Patients with a TR who experienced it only after dose escalation", "setting": "[2]; five of 24 patients with TR", "value": 21, "unit": "%"},
      {"measurement": "Patients who experienced a grade 3 rash", "setting": "[2]; of 42 patients", "value": "Six"},
      {"measurement": "Dosing range above which erlotinib doses could not be increased in most patients", "setting": "[2]; principally due to intolerable skin toxicity despite supportive measures", "value": "250–300 mg per day"},
      {"measurement": "Patients with a TR who developed it following escalation to 200 mg per day", "setting": "[2]; three of 24 patients with TR", "value": 13, "unit": "%"},
      {"measurement": "Patients with a TR who developed it following escalation to 225 mg per day", "setting": "[2]; two of 24 patients with TR", "value": 8, "unit": "%"},
      {"measurement": "Relationships between dose and both AUC0–24 and Cmax (Spearman rank correlation)", "setting": "[3]; human", "value": "did not reveal any significant deviation from dose proportionality"},
      {"measurement": "Interpatient and intrapatient variability of PK", "setting": "[3]", "value": "High"},
      {"measurement": "Patients who developed NCI CTC grade 2 or 3 rash", "setting": "[4]", "value": "~30", "unit": "%"},
      {"measurement": "Cmax", "setting": "clinical; 150 mg", "value": 1910, "unit": "ng/mL"},
      {"measurement": "Tmax", "setting": "clinical; 150 mg", "value": 2, "unit": "h"},
      {"measurement": "Cmax", "setting": "clinical; 200 mg", "value": 2650, "unit": "ng/mL"},
      {"measurement": "Tmax", "setting": "clinical; 200 mg", "value": 2, "unit": "h"},
      {"measurement": "Cmax", "setting": "clinical; 225 mg", "value": 2540, "unit": "ng/mL"},
      {"measurement": "Tmax", "setting": "clinical; 225 mg", "value": 2, "unit": "h"},
      {"measurement": "Cmax", "setting": "clinical; 250 mg", "value": 2820, "unit": "ng/mL"},
      {"measurement": "Tmax", "setting": "clinical; 250 mg", "value": 2.1, "unit": "h"},
      {"measurement": "Cmax", "setting": "clinical; 275 mg", "value": 2190, "unit": "ng/mL"},
      {"measurement": "Tmax", "setting": "clinical; 275 mg", "value": 1, "unit": "h"},
      {"measurement": "Cmax", "setting": "clinical; 300 mg", "value": 2940, "unit": "ng/mL"},
      {"measurement": "Tmax", "setting": "clinical; 300 mg", "value": 2, "unit": "h"},
      {"measurement": "Cmax", "setting": "clinical; 325 mg", "value": 2800, "unit": "ng/mL"},
      {"measurement": "Cmax", "setting": "clinical; 350 mg", "value": 1780, "unit": "ng/mL"},
      {"measurement": "Tmax", "setting": "clinical; 350 mg", "value": 3.5, "unit": "h"},
      {"measurement": "Cmax", "setting": "clinical; 375 mg", "value": 2770, "unit": "ng/mL"},
      {"measurement": "Tmax", "setting": "clinical; 375 mg", "value": 1, "unit": "h"},
      {"measurement": "Tmax", "setting": "clinical; 400 mg", "value": 2, "unit": "h"},
      {"measurement": "Cmax", "setting": "clinical; 425 mg", "value": 2780, "unit": "ng/mL"},
      {"measurement": "Cmax", "setting": "clinical; 450 mg", "value": 4100, "unit": "ng/mL"},
      {"measurement": "Tmax", "setting": "clinical; 450 mg", "value": 8, "unit": "h"},
      {"measurement": "Cmax", "setting": "clinical; 475 mg", "value": 2200, "unit": "ng/mL"},
      {"measurement": "Tmax", "setting": "clinical; 475 mg", "value": 4.2, "unit": "h"},
      {"measurement": "Erlotinib Tmax", "setting": "[5]", "value": 4.0, "unit": "h"}
    ]}
  ]
}
